Measurements reported in patent publication US9085605B2, “Chemical synthesis and anti-tumor and anti-metastatic effects of dual functional conjugate” (Shenzhen Salubris Pharmaceuticals Co., Ltd., priority 2010, dated 2015).
Several values for one entry are separate records, joined by “and”; a condition that tells them apart may be missing. Identical values can stand only once. Like-named read-outs stand apart in the source and are kept apart here.

Key:
[1] = test system: lewis lung cancer; experiment: Anti-artificial metastasis on Lewis lung cancer in mice (intravenous inoculation); format: in vivo, C57Bl/6 mice
Procedure: The suspension (0.2 mL/mice, 3×10^5 tumor cell) was inoculated intravenously into the tails of fifty C57Bl/6 mice. […] The tumors, spleen and lung were removed and weighed.

[2] = test system: Mice breast cancer cell line (4T1, ATCC CRL2539)
Procedure: Mice breast cancer cell line (4T1, ATCC CRL2539) was a generous gift from Prof. Wei Liang of the Institute of biophysics, Chinese Academy of Sciences. The cell was cultured in the 1640 medium (Gibco) containing 10% fetal bovine serum (FBS), 1% glutamine and 1% penicillin.
4T1 cells in logarithmic phase were collected and the concentration was adjusted to 2×10^6/mL. 4T1 tumors were introduced in female BALB/c mice by injecting subcutaneously into the fourth fat pad area of the right abdominal mammary gland with the dose of 2×10^5/0.1 mL. […] From the 9th day after implantation, tumor growth was measured every 2 days with vernier calipers for determining the long diameter and short diameter of tumor. Tumor volume was calculated by the formula (½)×long diameter×short diameter^2. Drug was withdrawn on the twenty-eight days after the implantation, all mice were then sacrificed and the body weight were measured. The tumors, spleen and lung were removed and weighed. The lungs were fixed in Bouin's fixative for 24 h. The numbers of lung metastasis nodule were counted, the statistics was evaluated using Mann-Whitney U test.

[3] = test system: clear Human ovarian cell cancer ES-2; experiment: Xenograft tumor nude mice screening, ES-2; format: in vivo, BALB/c nu mice; settings: 30 mg/kg i.p., 10~12 times
Procedure: (§1) Certificate NO. SCXK (BeiJing) 2005-0013. • Cell lines: The tumor cell lines were passaged and cultured by our Lab, some of them was obtained from ATCC. • The tumor cell lines included: Human breast cancer MX-1 and MCF-7. • Human ovarian cancer A2780, and clear Human ovarian cell cancer ES-2, • Human lung cancer H1975 and A549. Experiment Method: • 1. […] The administration dose and treatment progress was determined based from the preliminary experiments, which had solid effects and the shortest treatment period—the dose of 30 mg/kg/day, and the administration duration time of every lot experiment was not more than 12 days.

[4] = Toxicity test by single dose, intravenous; format: in vivo, ICR mice
[5] = test system: 60 human tumor cell lines; experiment: NCI screening of antitumor activity in vitro in 60 human tumor cell lines; format: cell-based
Source text: The experimental results refer to FIGS. 1-12.

[6] = test system: Human lung cancer H1975; experiment: Xenograft tumor nude mice screening, H1975; format: in vivo, BALB/c nu mice; settings: 30 mg/kg × 12, i.p.
Procedure: as §1

[7] = test system: Human lung cancer A549; experiment: Xenograft tumor nude mice screening, A549; format: in vivo, BALB/c nu mice
Procedure: as §1

[8] = test system: human breast cancer line MDA-MB-231; experiment: Tumor growth inhibition in nude mice xenograft model, MDA-MB-231
Procedure: • 1. […] Drug administration dose were set as: 10 mg/kg, 15 mg/kg, and 20 mk/kg, drug administration volume was 0.2 mL/20 g. • 2. […] MDA [Peptide (P) 0.54 mg/mL (0.001M), Example 10], a colorless and clear liquid, was prepared by the commission, can be directly used after the repackaging in a sterile condition, stored at 4° C. […] Certificate NO. […] SYSK (BeiJing) 2004-0001. Experiment Methods:
The mice were divided into groups and administrated drug after 11 days.
The mice were divided into eight groups, each group had 6-8 mice. The groups contained Negative control. […] After grouping, all mice were administrated with drug by intraperitoneal injection once a day depends on their body weight.
Other groups were administered with drugs for 24 times successively. The experiment was completed 24 h after the last administration.
The mice were sacrificed, and tumors were isolated and their weight was measured, and the inhibition rate of tumor growth by drugs were calculated. […] Calculation methods and formula were omitted.

[9] = test system: Human ovarian cancer A2780; experiment: Xenograft tumor nude mice screening, A2780; format: in vivo, BALB/c nu mice; settings: 30 mg/kg i.p., 10~12 times
Procedure: as §1

[10] = 112.5 mg·kg^−1 i.v. single dose
[11] = 30 mg/kg × 12, i.p. once a day, then withdrawn, larger starting tumors

## CC(=O)O[C@H]1C(=O)[C@@]2(C)[C@H]([C@H](OC(=O)c3ccccc3)[C@]3(O)C[C@H](OC(=O)[C@H](OC(=O)CCC(=O)NCCCCC(NC(=O)CC[C@H](NC(=O)C(C)NC(=O)/C=C/c4ccc(Cl)cc4)C(N)=O)C(N)=O)[C@@H](NC(=O)c4ccccc4)c4ccccc4)C(C)=C1C3(C)C)[C@]1(OC(C)=O)CO[C@@H]1C[C@@H]2O (some centres unmarked) [MTC-220]
[1]; 2.5 mg/kg i.p.
  Body weight: 19.0 ± 1.9 g
  Lung weight: 334 ± 217 mg
[1]; 5 mg/kg i.p.
  Body weight: 18.4 ± 2.3 g
  Lung weight: 492 ± 353 mg
[1]; 10 mg/kg i.p.
  Lung weight: 393 ± 326 mg
[1]; 2.5, 5, 10 mg/kg, dose dependent
  Lung metastasis nodule number compared to vehicle control (in words): significantly decreased
[2]; 2.5 mg/kg i.p. once daily
  Lung weight: 153 ± 18 mg
[2]; 5.0 mg/kg i.p. once daily
  Lung weight: 160 ± 15 mg
[2]; 2.5, 5, 10 mg/kg i.p. once daily
  Toxic and side effects: no toxic and side effects
[2]; 2.5, 5, 10 mg/kg, p<0.01, dose dependent
  Lung metastasis nodule numbers compared to vehicle control (in words): significantly decreased
[3]
  Inhibition of tumor growth (in words): at certain degree, but didn't attain the valid standard
[4]; [10]
  Anatomical examination of organs: no sign of abnormal changes
  Body weight compared with control group: not significantly different
  Symptoms after injection: voluntary activities of mice in administered group were reduced, some mice showed jumping symptoms
  Time to recovery from symptoms: about 10 min
[4]; 112.5 mg·kg^−1 i.v. single dose, 14 days observation
  Death: no death occured
[4]; mouse, in vivo, 112.5 mg·kg^−1, single intravenous injection, ICR mice
  MTD at 14 days: > 112 mg/kg
[5]
  50% growth inhibition (GI50) activity: in the same magnitude range as paclitaxel
[6]
  Body weight Beginning: 24.1 ± 1.20 g
  Body weight End: 26.6 ± 0.76 g
  RTV: 0.66 ± 0.464
  Tumor volume Beginning: 135 ± 50.6 mm^3
  Tumor volume End: 127 ± 106.1 mm^3
  Tumor weight: 0.13 ± 0.103 g
[7]; 30 mg/kg × 12, i.p.
  Body weight Beginning: 25.2 ± 1.31 g
  Body weight End: 26.3 ± 1.51 g
  RTV: 0.67 ± 0.411
  Tumor volume Beginning: 95 ± 27.7 mm^3
  Tumor volume End: 74 ± 55.2 mm^3
  Tumor weight: 0.062 ± 0.041 g
[7]; 30 mg/kg/day, after drug withdrawal
  Death: one mouse died one week after drug withdrawal
[7]; 30 mg/kg/day, during the administration
  Tumor observation (in words): became smaller and smaller, but didn't disappear
[8]; 10 mg/kg × 24, i.p. once a day
  Body weight Beginning: 17.4 ± 1.47 g
  Body weight End: 20.6 ± 1.64 g
  RTV: 12.62 ± 5.924
  T/C: 70.0%
  TGI: 37.3%
  Tumor volume Beginning: 135 ± 70.6 mm^3
  Tumor volume End: 1655 ± 929.4 mm^3
  Tumor weight: 1.78 ± 1.016 g
[8]; 15 mg/kg × 24, end of the experiment
  Body weight increase compared to the beginning of the grouping: 2.7 g
[8]; 15 mg/kg × 24, i.p. once a day
  Body weight Beginning: 17.9 ± 0.88 g
  Body weight End: 20.6 ± 0.91 g
  RTV: 7.12 ± 4.064
  T/C: 39.5% and 37.5% and 39.49%
  TGI: 57.4%
  Tumor volume Beginning: 148 ± 80.5 mm^3
  Tumor volume End: 967 ± 590.4 mm^3
  Tumor weight: 1.21 ± 0.813 g
[8]; 20 mg/kg × 24, end of the experiment
  Body weight increase compared to the beginning of the grouping: 1.9 g
[8]; 20 mg/kg × 24, i.p. once a day
  Body weight Beginning: 17.0 ± 1.11 g
  Body weight End: 18.9 ± 1.58 g
  RTV: 4.58 ± 2.456
  T/C: 25.40%
  TGI: 72.2%
  Tumor volume Beginning: 133 ± 57.6 mm^3
  Tumor volume End: 642 ± 482.3 mm^3
  Tumor weight: 0.79 ± 0.654 g
[8]; 30 mg/kg × 12, end of the experiment
  Body weight increase compared to the beginning of the grouping: 2.6 g
[8]; [11]
  Body weight Beginning: 17.5 ± 1.09 g
  Body weight End: 20.1 ± 0.98 g
  RTV: 1.11 ± 1.366
  T/C: 6.16%
  TGI: >87.0%
  Tumor volume Beginning: 340 ± 58.4 mm^3
  Tumor volume End: 391 ± 480.5 mm^3
  Tumor weight: 0.37 ± 0.413 g
[9]
  Inhibition of tumor growth (in words): at certain degree, but didn't attain the valid standard
